In ChEMBL document CHEMBL5113524, “Substrates and Inhibitors of the Organic Cation Transporter 3 and Comparison with OCT1 and OCT2” (J Med Chem, 2022):

Legend:
OCT3 (SLC22A3) [1] = target: T1, OCT3 (SLC22A3) (Homo sapiens, UniProt O75751); assay: Inhibition of human OCT3 mediated Famotidine uptake overexpressed in HEK293 cells at 20 uM incubated for 5 mins by HPLC-MS/MS analysis relative to control; type: cell-based; details: HEK293 cells overexpressing OCT3, probe Famotidine
T1 sequence (O75751 whole entry): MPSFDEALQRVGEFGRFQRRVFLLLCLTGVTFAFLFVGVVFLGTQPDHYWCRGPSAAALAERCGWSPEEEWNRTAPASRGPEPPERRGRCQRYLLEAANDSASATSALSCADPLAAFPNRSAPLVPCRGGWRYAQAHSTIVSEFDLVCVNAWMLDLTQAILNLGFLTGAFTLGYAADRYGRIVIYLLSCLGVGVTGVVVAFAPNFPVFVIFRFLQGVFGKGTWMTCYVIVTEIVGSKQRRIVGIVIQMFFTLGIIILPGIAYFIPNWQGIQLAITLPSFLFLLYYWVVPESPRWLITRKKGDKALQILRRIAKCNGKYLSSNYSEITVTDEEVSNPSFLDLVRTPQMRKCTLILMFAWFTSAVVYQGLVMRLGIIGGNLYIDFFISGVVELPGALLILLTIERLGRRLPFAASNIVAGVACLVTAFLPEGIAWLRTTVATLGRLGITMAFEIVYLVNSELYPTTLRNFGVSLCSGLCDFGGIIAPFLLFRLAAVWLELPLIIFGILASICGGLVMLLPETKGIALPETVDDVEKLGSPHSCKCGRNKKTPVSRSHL

OCT3 (SLC22A3) [2] = target: T1, OCT3 (SLC22A3); assay: Substrate activity at human OCT3 overexpressed in HEK293 cells assessed as uptake ratio incubated for 2 mins by LC-MS/MS analysis; type: ADME, cell-based; details: HEK293 cells overexpressing OCT3
OCT3 (SLC22A3) [3] = target: T1, OCT3 (SLC22A3); assay: Inhibition of human OCT3 mediated (S,S)-Ethambutol uptake overexpressed in HEK293 cells at 20 uM incubated for 5 mins by HPLC-MS/MS analysis relative to control; type: cell-based; details: HEK293 cells overexpressing OCT3, probe (S,S)-Ethambutol
OCT3 (SLC22A3) [4] = target: T1, OCT3 (SLC22A3); assay: Inhibition of human OCT3 mediated ASP+ uptake overexpressed in HEK293 cells at 20 uM incubated for 5 mins by HPLC-MS/MS analysis relative to control; type: cell-based; details: HEK293 cells overexpressing OCT3, probe ASP+
OCT3 (SLC22A3) [5] = target: T1, OCT3 (SLC22A3); assay: Inhibition of human OCT3 mediated methylscopolamine uptake overexpressed in HEK293 cells at 20 uM incubated for 5 mins by HPLC-MS/MS analysis relative to control; type: cell-based; details: HEK293 cells overexpressing OCT3, probe methylscopolamine
OCT3 (SLC22A3) [6] = target: T1, OCT3 (SLC22A3); assay: Inhibition of human OCT3 mediated N-Ethyllidocaine uptake overexpressed in HEK293 cells at 20 uM incubated for 5 mins by HPLC-MS/MS analysis relative to control; type: cell-based; details: HEK293 cells overexpressing OCT3, probe N-Ethyllidocaine
[7] = target: T2, Solute carrier family 22 member 3 (Homo sapiens, UniProt O75751); assay: (§1) Inhibition of human OCT3 overexpressed in HEK293 cells assessed as intracellularly accumulation of ASP+ at 20 uM incubated for 5 mins by HPLC-MS/MS analysis relative to control; type: cell-based; details: hek293, 5 min, 20 µM
T2 sequence (O75751 whole entry): T1 sequence (O75751 whole entry)

OCT3 (SLC22A3) [8] = target: T1, OCT3 (SLC22A3); assay: Inhibition of OCT3 (unknown origin) overexpressed in HEK293 cells assessed as intracellular accumulation of ASP+ incubated for 2 mins by Analyst AD plate reader method relative to control; type: cell-based; set-up: concentration or dose not given beside the values; details: HEK293 cells overexpressing OCT3, probe ASP+
OCT3 (SLC22A3) [9] = target: T1, OCT3 (SLC22A3); assay: as §1; type: cell-based; details: HEK293 cells overexpressing OCT3, probe ASP+
[10] = target: Solute carrier family 22 member 2 (Homo sapiens) (UniProt O15244); assay: Inhibition of OCT2 mediated (unknown origin) assessed as intracellular accumulation of ASP+ relative to control
OCT2 = OCT2 (Homo sapiens, UniProt O15244); assay: Substrate activity at human OCT2 overexpressed in HEK293 cells assessed as uptake ratio incubated for 2 mins by LC-MS/MS analysis; type: ADME, cell-based; details: HEK293 cells overexpressing OCT2
OCT1 = OCT1 (Homo sapiens, UniProt O15245); assay: Substrate activity at OCT1 (unknown origin) assessed as uptake ratio; type: ADME, cell-based; details: HEK293 cells
Chain of OCT1 (O15245 whole entry, looked up): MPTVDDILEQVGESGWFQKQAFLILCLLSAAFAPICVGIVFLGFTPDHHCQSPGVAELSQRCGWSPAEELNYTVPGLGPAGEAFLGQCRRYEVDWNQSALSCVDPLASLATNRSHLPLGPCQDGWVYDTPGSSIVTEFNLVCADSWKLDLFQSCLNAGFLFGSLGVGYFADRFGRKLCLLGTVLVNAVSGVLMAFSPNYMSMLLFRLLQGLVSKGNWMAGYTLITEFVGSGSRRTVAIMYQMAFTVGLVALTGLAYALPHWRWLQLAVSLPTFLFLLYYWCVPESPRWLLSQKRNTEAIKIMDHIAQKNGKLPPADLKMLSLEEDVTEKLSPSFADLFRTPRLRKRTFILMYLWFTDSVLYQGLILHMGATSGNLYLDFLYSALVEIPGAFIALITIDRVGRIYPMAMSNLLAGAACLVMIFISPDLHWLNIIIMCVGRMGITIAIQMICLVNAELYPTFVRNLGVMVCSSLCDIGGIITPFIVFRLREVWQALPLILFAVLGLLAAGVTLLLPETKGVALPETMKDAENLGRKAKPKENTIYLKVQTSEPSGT

Chain of Solute carrier family 22 member 2 (Homo sapiens) (O15244 whole entry, looked up): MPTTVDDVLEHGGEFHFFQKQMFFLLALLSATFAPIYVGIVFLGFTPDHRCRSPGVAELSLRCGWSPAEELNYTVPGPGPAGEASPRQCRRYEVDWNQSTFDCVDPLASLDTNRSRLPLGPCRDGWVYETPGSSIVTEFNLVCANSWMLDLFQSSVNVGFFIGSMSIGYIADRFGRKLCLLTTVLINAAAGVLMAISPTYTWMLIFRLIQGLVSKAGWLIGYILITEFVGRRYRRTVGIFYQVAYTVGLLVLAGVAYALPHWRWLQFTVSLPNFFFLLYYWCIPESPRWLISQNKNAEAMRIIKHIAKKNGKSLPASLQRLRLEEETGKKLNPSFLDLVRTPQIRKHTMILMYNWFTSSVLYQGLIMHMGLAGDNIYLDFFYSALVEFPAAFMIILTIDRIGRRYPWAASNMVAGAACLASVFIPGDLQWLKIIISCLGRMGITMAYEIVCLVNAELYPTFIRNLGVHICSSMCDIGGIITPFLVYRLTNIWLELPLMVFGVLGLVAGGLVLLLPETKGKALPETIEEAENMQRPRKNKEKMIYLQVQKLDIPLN
Chain of OCT2 (O15244 whole entry, looked up): as above

With `CC[N+](CC)(CC)CC(=O)Nc1c(C)cccc1C` the inhibition at 5 min, 20 µM (OCT3 (SLC22A3) [1]) was 52%, the uptake ratio at 2 min (OCT3 (SLC22A3) [2]) was 50 and the inhibition at 5 min, 20 µM (OCT3 (SLC22A3) [3]) was 44%. For the same compound, the inhibition at 5 min, 20 µM (OCT3 (SLC22A3) [4]) was 16% and the inhibition at 5 min, 20 µM (OCT3 (SLC22A3) [5]) was 15%.

For `CC[N+](CC)(CC)Cc1ccccc1`, the uptake ratio at 2 min (OCT3 (SLC22A3) [2]) was 62.5, the inhibition at 5 min, 20 µM (OCT3 (SLC22A3) [4]) was 5% and the inhibition at 5 min, 20 µM (OCT3 (SLC22A3) [5]) was 49%.

`CN(C)c1ccc(/C=C/c2cc[n+](C)cc2)cc1` gave an inhibition at 5 min, 20 µM (OCT3 (SLC22A3) [1]) of 63%, an inhibition at 5 min, 20 µM (OCT3 (SLC22A3) [3]) of 51% and an inhibition at 5 min, 20 µM (OCT3 (SLC22A3) [6]) of 70%. For the same compound, the inhibition at 5 min, 20 µM (OCT3 (SLC22A3) [5]) was 58%.

Work on `N=C(N)N1Cc2ccccc2C(O)C1` (stereo unspecified) yielded an uptake ratio at 2 min (OCT3 (SLC22A3) [2]) of 38.

For `C[N+]1(CCC(C(N)=O)(c2ccccc2)c2ccccc2)CCCCC1`, the “inhibition (INH)” value [7] was “Active”.

In the case of `C[N+]1(C)[C@@H]2C[C@H](OC(=O)[C@H](CO)c3ccccc3)C[C@H]1[C@@H]1O[C@@H]12`, the inhibition at 5 min, 20 µM (OCT3 (SLC22A3) [1]) was 40%, the inhibition at 5 min, 20 µM (OCT3 (SLC22A3) [3]) was 27% and the inhibition at 5 min, 20 µM (OCT3 (SLC22A3) [4]) was 0%. The inhibition at 5 min, 20 µM (OCT3 (SLC22A3) [6]) was 21%.

Compound `Cc1cc(N)c2ccccc2[n+]1CCCCCCCCCC[n+]1c(C)cc(N)c2ccccc21` has an inhibition at 2 min (OCT3 (SLC22A3) [8]) of 66.6%.

`C[N+]1(C)[C@@H]2C[C@H](OC(=O)C(O)(c3cccs3)c3cccs3)C[C@H]1[C@@H]1O[C@@H]12` was tested, and the uptake ratio at 2 min (OCT3 (SLC22A3) [2]) was 50.

`CNCC/C=C1\c2ccccc2CC(O)c2ccccc21` (stereo unspecified) showed an inhibition at 5 min, 20 µM (OCT3 (SLC22A3) [9]) of 86.7%.

Compound `CN(C)CCC=C1c2ccccc2CC(O)c2ccccc21` (stereo unspecified) has an inhibition at 5 min, 20 µM (OCT3 (SLC22A3) [9]) of 79.3%.

`N=C(NCCCCCCNC(=N)NC(=N)Nc1ccc(Cl)cc1)NC(=N)Nc1ccc(Cl)cc1` gave an inhibition [10] of 105%.

`COc1ccc2[nH]cc(CCN)c2c1` [5-METHOXYTRYPTAMINE] was tested, and the uptake ratio at 2 min (OCT2) was 7.1, the uptake ratio (OCT1) was 3.8 and the uptake ratio at 2 min (OCT3 (SLC22A3) [2]) was 2.2.

`CCCCC(CC)CNC(=N)NC(=N)NCCCCCCNC(=N)NC(=N)NCC(CC)CCCC` (stereo unspecified) [ALEXIDINE] gave an inhibition at 2 min (OCT3 (SLC22A3) [8]) of 98.1% and an inhibition at 5 min, 20 µM (OCT3 (SLC22A3) [9]) of 103%.

Compound `CN(C)CCC=C1c2ccccc2CCc2ccccc21` [AMITRIPTYLINE] has an inhibition at 5 min, 20 µM (OCT3 (SLC22A3) [9]) of 80%.

`[H]/N=C(\N/C(=N/[H])NCCCCCCNC(=N)NC(=N)Nc1ccc(Cl)cc1)Nc1ccc(Cl)cc1` [CHLORHEXIDINE] showed an inhibition at 2 min (OCT3 (SLC22A3) [8]) of 98.4% and an inhibition at 5 min, 20 µM (OCT3 (SLC22A3) [9]) of 98.4%.

Work on `CC(C)(C)NCC(O)c1ccc(O)c(O)c1` (stereo unspecified) [COLTEROL] yielded an uptake ratio at 2 min (OCT3 (SLC22A3) [2]) of 53.

With `C[C@@H](Oc1cc(-c2cnn(C3CCNCC3)c2)cnc1N)c1c(Cl)ccc(F)c1Cl` [CRIZOTINIB] the inhibition at 5 min, 20 µM (OCT3 (SLC22A3) [9]) was 90.4%.

In the case of `C[N+]1(C)CCN(c2ccccc2)CC1` [DIMETHYLPHENYLPIPERAZINIUM], the uptake ratio at 2 min (OCT3 (SLC22A3) [2]) was 46.

With `CC[C@@H](CO)NCCN[C@@H](CC)CO` [ETHAMBUTOL] the inhibition at 5 min, 20 µM (OCT3 (SLC22A3) [1]) was -1%, the inhibition at 5 min, 20 µM (OCT3 (SLC22A3) [4]) was 7% and the inhibition at 5 min, 20 µM (OCT3 (SLC22A3) [6]) was -7%. The inhibition at 5 min, 20 µM (OCT3 (SLC22A3) [5]) was -13%.

With `CN[C@@H]1CCc2[nH]c3ccc(C(N)=O)cc3c2C1` [FROVATRIPTAN] the uptake ratio at 2 min (OCT2) was 10.8, the uptake ratio (OCT1) was 30.3 and the uptake ratio at 2 min (OCT3 (SLC22A3) [2]) was 7.7.

`CN(C)c1ccc(C(=C2C=CC(=[N+](C)C)C=C2)c2ccc(N(C)C)cc2)cc1` [GENTIAN VIOLET] was tested, and the inhibition at 2 min (OCT3 (SLC22A3) [8]) was 107%, the inhibition at 5 min, 20 µM (OCT3 (SLC22A3) [9]) was 81.4% and the inhibition [10] was 116%.

In the case of `CC(C)[N+]1(C)[C@@H]2CC[C@H]1C[C@@H](OC(=O)C(CO)c1ccccc1)C2` (stereo partly specified) [IPRATROPIUM], the inhibition at 2 min (OCT3 (SLC22A3) [8]) was 47.8% and the inhibition at 5 min, 20 µM (OCT3 (SLC22A3) [9]) was 79.1%.

Compound `CCC(NC(C)C)C(O)c1ccc(O)c(O)c1` (stereo unspecified) [ISOETHARINE] has an uptake ratio at 2 min (OCT3 (SLC22A3) [2]) of 23.3.

`C[N+]1(CC2CC2)CC[C@]23c4c5ccc(O)c4O[C@H]2C(=O)CC[C@@]3(O)[C@H]1C5` (stereo partly specified) [METHYLNALTREXONE] gave an uptake ratio at 2 min (OCT3 (SLC22A3) [2]) of 102.

In the case of `CNCCC=C1c2ccccc2CCc2ccccc21` [NORTRIPTYLINE], the inhibition at 5 min, 20 µM (OCT3 (SLC22A3) [9]) was 80%.

`Cc1nc2n(c(=O)c1CCN1CCC(c3noc4cc(F)ccc34)CC1)CCCC2O` (stereo unspecified) [PALIPERIDONE] was tested, and the inhibition at 5 min, 20 µM (OCT3 (SLC22A3) [9]) was 87.7%.

For `[H]/N=C(/N)N/C(=N/[H])NCCc1ccccc1` [PHENFORMIN], the uptake ratio at 2 min (OCT3 (SLC22A3) [2]) was 32.2.

`CN(C)CCc1c[nH]c2ccc(Cn3cncn3)cc12` [RIZATRIPTAN] showed an uptake ratio at 2 min (OCT2) of 4.1, an uptake ratio (OCT1) of 4.3 and an uptake ratio at 2 min (OCT3 (SLC22A3) [2]) of 2.4.

For `CC(=O)S[C@@H]1CC2=CC(=O)CC[C@]2(C)[C@H]2CC[C@@]3(C)[C@@H](CC[C@@]34CCC(=O)O4)[C@H]12` [SPIRONOLACTONE], the inhibition at 5 min, 20 µM (OCT3 (SLC22A3) [9]) was 93.9% and the inhibition [10] was 84.2%.

`Cc1ccc(O)c([C@H](CCN(C(C)C)C(C)C)c2ccccc2)c1` [TOLTERODINE] showed an inhibition at 5 min, 20 µM (OCT3 (SLC22A3) [9]) of 96.1%.

In the case of `O=C(O[C@H]1C[C@H]2CC[C@@H](C1)[N+]21CCCC1)C(O)(c1ccccc1)c1ccccc1` [TROSPIUM], the “inhibition (INH)” value [7] was “Active”.

`CN(C)CCc1c[nH]c2ccc(C[C@H]3COC(=O)N3)cc12` [ZOLMITRIPTAN] gave an uptake ratio at 2 min (OCT2) of 1.2, an uptake ratio (OCT1) of 9.3 and an uptake ratio at 2 min (OCT3 (SLC22A3) [2]) of 22.
